From article PMC7710018, “Restoration of motor learning in a mouse model of Rett syndrome following long-term treatment with a novel small-molecule activator of TrkB” (Disease Models & Mechanisms, 2020)
Read-outs that look alike come from different tables or passages of the source.

How the values were obtained:
[1] = test system: heterozygous (Het) female Mecp2 mutant mice; experiment: Rotarod; format: in vivo, mouse; conditions: 5 mg/kg q72 h
Description: Small-molecule compounds were diluted in saline and delivered by i.p. injection. To define the acute effects of single drug treatments, behavioral testing was initiated 1 h after dosing. Durable effects of single drug treatments were evaluated 24 h after dosing. […]
A Rotarod apparatus (Columbus Instruments) was used test to assess sensorimotor coordination. Animals were placed on a rotating rod at a constant speed of 4 rpm for 1 min of acclimation. […] Latency of the animal to fall was recorded. The test was repeated three times, with each trial separated by 15 min, to assess potential learning components of any observed phenotypes.

[2] = target: T1, μ (MOP) (h) (Homo sapiens, UniProt P35372); experiment: Cerep ExpresSProfile radioligand binding; conditions: 10 micromolar; agonist radioligand; read-out: % Inhibition of Control Specific Binding 1st
T1 construct: purchased Cerep (ExpresSProfile)
T1 sequence (P35372 whole entry): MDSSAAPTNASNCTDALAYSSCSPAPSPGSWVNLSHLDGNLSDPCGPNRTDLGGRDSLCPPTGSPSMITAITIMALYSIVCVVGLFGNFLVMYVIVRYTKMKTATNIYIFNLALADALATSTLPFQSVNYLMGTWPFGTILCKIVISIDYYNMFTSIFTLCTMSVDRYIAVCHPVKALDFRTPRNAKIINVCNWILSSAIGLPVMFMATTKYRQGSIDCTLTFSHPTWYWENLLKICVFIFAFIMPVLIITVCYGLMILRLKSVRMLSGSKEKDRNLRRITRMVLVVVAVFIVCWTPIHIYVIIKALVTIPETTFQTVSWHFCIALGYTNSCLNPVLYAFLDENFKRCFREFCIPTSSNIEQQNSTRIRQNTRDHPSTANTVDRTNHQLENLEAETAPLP
Description: (§1) To evaluate the relative binding specificity of LM22A-4 ([Massa et al., 2010]) and PTX-BD4-3, binding to a broad range of 55 pharmacologically relevant receptors, including numerous neurotransmitter and G-protein coupled receptors was assessed using standard radioligand competition binding assays (ExpressSProfile) performed by Cerep, Inc. (Seattle, WA, USA). In addition, ADME-Tox analysis was performed by Cerep, Inc. All experimental conditions are described on the Cerep website (www.cerep.fr).
(§2) Ligand % Inhibition of Control Specific […]
(§3) 48 Ca2+ channel (L, verapamil site) 0 ‐1.3 ‐0.7
(§4) (phenylalkylamine) (antagonist radioligand) […]
(§5) 51 Na+ channel (site 2) (antagonist radioligand) 0.6 11.7 6.1
(§6) 52 Cl‐ channel (GABA‐gated) (antagonist 2.7 ‐5.3 ‐1.3 […]
(§7) Table S1. In vitro binding assays. An ExpresSProfile screen of PTX-BD4-3 binding to a panel of pharmacologically relevant receptors was conducted by Cerep, Inc.
(§8) (Eurofins Panlabs, MO). The results are expressed as percent inhibition of control specific binding obtained in the presence of 10 micromolar PTX-BD4-3. In this assay, values below 50% indicate no specific binding of PTX-BD4-3. The assay was negative for PTX-BD4-3 binding to all of the 55 receptors in the screen.
(§9) (also on this page, place not known: 2B 5‐HT 3 5‐HT 5a 5‐HT 6 5‐HT 7 (agonis t VPAC 1 V 1 Ca 2+ K V SK Ca Na + Cl ‐ 5‐HT Disease Models & Mechanisms: doi:10.1242/dmm.044685: Supplementary information Disease Models & Mechanisms • Supplementary information)

[3] = test system: BZD (central); experiment: Cerep ExpresSProfile radioligand binding; conditions: 10 micromolar; agonist radioligand
Description: as §1, §2, §3, §4, §5, §6, §7, §8, §9

[4] = target: T2, H1 (h) (Homo sapiens, UniProt P35367); experiment: Cerep ExpresSProfile radioligand binding; conditions: 10 micromolar, antagonist radioligand
T2 construct: purchased Cerep (ExpresSProfile)
T2 sequence (P35367 whole entry): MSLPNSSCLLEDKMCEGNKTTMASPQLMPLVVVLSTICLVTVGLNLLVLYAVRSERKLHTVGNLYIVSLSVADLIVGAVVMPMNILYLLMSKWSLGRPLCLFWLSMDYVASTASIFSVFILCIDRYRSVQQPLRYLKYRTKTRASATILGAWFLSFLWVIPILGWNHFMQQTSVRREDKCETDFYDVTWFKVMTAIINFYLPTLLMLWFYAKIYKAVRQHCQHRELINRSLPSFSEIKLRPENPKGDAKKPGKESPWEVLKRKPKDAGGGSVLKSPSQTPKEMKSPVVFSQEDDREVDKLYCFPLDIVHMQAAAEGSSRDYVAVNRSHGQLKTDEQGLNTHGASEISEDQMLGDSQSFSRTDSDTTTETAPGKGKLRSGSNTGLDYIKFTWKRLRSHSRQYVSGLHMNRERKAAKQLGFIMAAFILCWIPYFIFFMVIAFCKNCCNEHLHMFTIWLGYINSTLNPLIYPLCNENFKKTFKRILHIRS
Description: as §1, §2, §3, §4, §5, §6, §7, §8, §9

[5] = target: T3, A2A (h) (Homo sapiens, UniProt P29274); experiment: Cerep ExpresSProfile radioligand binding; conditions: 10 micromolar, agonist radioligand
T3 construct: purchased Cerep (ExpresSProfile)
T3 sequence (P29274 whole entry): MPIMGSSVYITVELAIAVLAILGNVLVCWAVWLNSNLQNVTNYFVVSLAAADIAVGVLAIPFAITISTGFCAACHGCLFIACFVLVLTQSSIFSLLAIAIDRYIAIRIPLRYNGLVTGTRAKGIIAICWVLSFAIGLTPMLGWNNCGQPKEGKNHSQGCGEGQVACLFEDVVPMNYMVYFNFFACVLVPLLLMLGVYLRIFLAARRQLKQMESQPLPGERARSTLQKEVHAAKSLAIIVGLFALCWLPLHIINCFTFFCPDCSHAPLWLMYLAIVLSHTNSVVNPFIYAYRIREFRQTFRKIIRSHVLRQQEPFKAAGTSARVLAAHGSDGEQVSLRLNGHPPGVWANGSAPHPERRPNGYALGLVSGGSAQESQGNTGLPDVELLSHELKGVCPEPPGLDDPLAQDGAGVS
Description: as §1, §2, §3, §4, §5, §6, §7, §8, §9

[6] = target: T4, 5-HT1A (h) (Homo sapiens, UniProt P08908); experiment: Cerep ExpresSProfile radioligand binding; conditions: 10 micromolar, agonist radioligand
T4 construct: purchased Cerep (ExpresSProfile)
T4 sequence (P08908 whole entry): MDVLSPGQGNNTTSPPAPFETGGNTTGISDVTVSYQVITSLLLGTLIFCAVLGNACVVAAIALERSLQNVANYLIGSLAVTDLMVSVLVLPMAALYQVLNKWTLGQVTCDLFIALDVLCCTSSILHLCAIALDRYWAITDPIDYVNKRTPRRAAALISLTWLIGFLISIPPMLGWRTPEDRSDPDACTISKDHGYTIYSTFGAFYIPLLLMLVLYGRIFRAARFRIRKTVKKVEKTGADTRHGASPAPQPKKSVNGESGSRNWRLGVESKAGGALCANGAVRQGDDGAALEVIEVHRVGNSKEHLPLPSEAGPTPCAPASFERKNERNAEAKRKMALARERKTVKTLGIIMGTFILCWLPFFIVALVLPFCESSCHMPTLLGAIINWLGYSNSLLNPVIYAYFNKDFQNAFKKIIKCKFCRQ
Description: as §1, §2, §3, §4, §5, §6, §7, §8, §9

[7] = target: T5, EP4 (h) (Homo sapiens, UniProt P35408); experiment: Cerep ExpresSProfile radioligand binding; conditions: 10 micromolar, agonist radioligand
T5 construct: purchased Cerep (ExpresSProfile)
T5 sequence (P35408 whole entry): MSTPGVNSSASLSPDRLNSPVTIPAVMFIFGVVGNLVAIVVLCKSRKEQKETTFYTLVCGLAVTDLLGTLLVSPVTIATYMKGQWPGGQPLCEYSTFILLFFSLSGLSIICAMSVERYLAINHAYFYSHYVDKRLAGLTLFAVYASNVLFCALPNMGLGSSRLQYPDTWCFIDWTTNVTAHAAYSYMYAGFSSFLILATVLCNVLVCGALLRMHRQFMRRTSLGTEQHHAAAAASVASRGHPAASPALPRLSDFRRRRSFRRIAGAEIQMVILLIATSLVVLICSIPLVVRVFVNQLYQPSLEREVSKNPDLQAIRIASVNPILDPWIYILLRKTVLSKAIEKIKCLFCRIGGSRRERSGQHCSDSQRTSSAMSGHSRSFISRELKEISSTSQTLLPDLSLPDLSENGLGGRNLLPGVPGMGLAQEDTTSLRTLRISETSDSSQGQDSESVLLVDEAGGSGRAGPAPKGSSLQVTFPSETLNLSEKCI
Description: as §1, §2, §3, §4, §5, §6, §7, §8, §9

[8] = test system: 3T3-TrkA cells; experiment: NIH-3T3 cell survival (ViaLight); format: cell-based, mouse; conditions: serum-free medium, 72-96 h, PTX-BD4-3 1000 nM
Description: (§10) Fig. 2. PTX-BD4-3 promotes cell survival preferentially through TrkB. (A-D) Neurotrophin receptor-expressing NIH-3T3 cells were incubated in culture medium (CM) alone or in medium plus either the indicated neurotrophins (BDNF, NGF, NT-3) or PTX-BD4-3 or its parent compound LM22A-4 for 72-96 h, after which survival was measured using the ViaLight assay. […] Scale bar: 10 μm. (B) Survival dose-response curves for PTX-BD4-3 and LM22A-4 in 3T3-TrkB cells. ^§P≤0.001 compared to CM alone. (C) Representative images of 3T3-TrkA, 3T3-TrkC and 3T3-p75 cells grown in the presence of CM alone, CM+neurotrophin or CM+PTX-BD4-3. Scale bar: 10 μm. NGF, NT-3 and BDNF served as positive controls for 3T3-TrkA, 3T3-TrkC and 3T3-p75 cells, respectively. (D) PTX-BD4-3 (1000 nM) had no effect on survival of 3T3-TrkA, 3T3-TrkC or 3T3-p75 cells compared to medium alone. *P≤0.05, ***P≤0.001 compared to CM alone. For each determination in B and D, n=10-32 wells derived from four to five independent experiments. Statistical significance was determined by one-way ANOVA with Dunnett's post hoc multiple comparison test. (E,F) […] protein was extracted from human cementoblast-like cell (HCEM) cultures treated with either culture medium alone, BDNF, LM22A-4 or PTX-BD4-3, immunoprecipitated with anti-TrkB antibody and then probed sequentially on western blots with anti-Shc and anti-TrkB antibody. The ratio of Shc to TrkB in treated cultures was normalized and compared to control (CM alone) using Kruskal-Wallis ANOVA followed by Dunn's multiple comparisons test (*P≤0.05, ^§P≤0.001). n=13 independent experiments, and each protein sample was run on duplicate western blots and the normalized values averaged. RLUs, relative light units.
(§11) Mouse NIH-3T3 cells expressing TrkA (NIH-3T3-TrkA) were provided by Dr William Mobley (University of California at San Diego, San Diego, CA, USA), and NIH-3T3 cells expressing TrkB (NIH-3T3-TrkB) or TrkC (NIH-3T3-TrkC) were provided by Dr David Kaplan (University of Toronto, Toronto, ON, Canada). Cells were propagated in Dulbecco's modified Eagle medium (DMEM) supplemented with 10% fetal bovine serum (FBS; Invitrogen) and 200-400 µg/ml Geneticin. Cells were seeded into 24-well plates (30,000 cells/well) and cultured in medium consisting of 50% PBS and 50% DMEM without supplements. Following exposure to BDNF (20 ng/ml, 0.7 nM) or 10-1000 nM LM22A-4 or PTX-BD4-3 for 72-96 h, cells were suspended in 50 µl lysis buffer, transferred to white, opaque 96-well culture plates and survival was measured using the ViaLight Assay (Lonza Group, Rockland, ME, USA).

[9] = test system: 3T3-TrkC cells; experiment: NIH-3T3 cell survival (ViaLight); format: cell-based, mouse; conditions: serum-free medium, 72-96 h, PTX-BD4-3 1000 nM
Description: as §10, §11

[10] = test system: 3T3-p75 cells; experiment: NIH-3T3 cell survival (ViaLight); format: cell-based, mouse; conditions: serum-free medium, 72-96 h, PTX-BD4-3 1000 nM
Description: as §10, §11

[11] = read-out: % Inhibition of Control Specific Binding 1st
[12] = read-out: % Inhibition of Control Specific Binding 2nd
[13] = read-out: % Inhibition of Control Specific Binding Mean

COCCN(C)C(=O)c1cc(C(=O)N(C)CCOC)cc(C(=O)N(C)CCOC)c1 [PTX-BD4-3, benzene-1,3,5-tricarboxylic acid tris-[(2-methoxy-ethyl)-methyl-amide]]
Rotarod performance (latency to fall) ([1]; 2 weeks, repeated testing, 24 h after last dose): as impaired as their saline-treated Het littermates
Rotarod performance (latency to fall) ([1]; 8 weeks, repeated testing at 2, 4, 8 weeks, 24 h after last dose): comparable to that of saline-treated Wt controls
Rotarod performance (latency to fall) ([1]; 8 weeks, tested only at the end of treatment, vs saline-treated Het): no improvement
inhibition at 10 µM [2]: 6.6%
% Inhibition of Control Specific Binding 1st [3]: 2.9%
inhibition at 10 µM [4, 11]: 5.8%
inhibition at 10 µM [4, 12]: 5.2%
inhibition at 10 µM [4, 13]: 5.5%
inhibition at 10 µM [5, 11]: 11.4%
inhibition at 10 µM [5, 12]: 30.1%
inhibition at 10 µM [5, 13]: 20.7%
inhibition at 10 µM [6, 11]: 19.3%
inhibition at 10 µM [6, 13]: 5%
inhibition at 10 µM [7, 11]: 9.5%
inhibition at 10 µM [7, 12]: 10.4%
inhibition at 10 µM [7, 13]: 9.9%
survival of 3T3-TrkA cells [8]: no effect
survival of 3T3-TrkC cells [9]: no effect
survival of 3T3-p75 cells [10]: no effect
